Laboratory results reported in paper PMC9615537 (Journal of Pharmaceutical Analysis, 2022).

Assay: Metabolic identification of PEP06 in vitro, all matrices together
Format: in vitro ADME
Conditions: semi-quantitative, Table S3

RGDRGDMHSHRDFQPVLH [M6]
Relative abundance of metabolite (peak area vs parent): most abundant metabolite
